From ChEMBL document CHEMBL1128905, “Synthesis and biological activity of 5-heteroaryl benzodiazepines: analogues of YM022” (Bioorg Med Chem Lett, 1996) come the findings set out here.

For assay [1], the target named is T1, Gastrin/cholecystokinin type B receptor (Rattus norvegicus, UniProt P30553).
T1 sequence (P30553 whole entry): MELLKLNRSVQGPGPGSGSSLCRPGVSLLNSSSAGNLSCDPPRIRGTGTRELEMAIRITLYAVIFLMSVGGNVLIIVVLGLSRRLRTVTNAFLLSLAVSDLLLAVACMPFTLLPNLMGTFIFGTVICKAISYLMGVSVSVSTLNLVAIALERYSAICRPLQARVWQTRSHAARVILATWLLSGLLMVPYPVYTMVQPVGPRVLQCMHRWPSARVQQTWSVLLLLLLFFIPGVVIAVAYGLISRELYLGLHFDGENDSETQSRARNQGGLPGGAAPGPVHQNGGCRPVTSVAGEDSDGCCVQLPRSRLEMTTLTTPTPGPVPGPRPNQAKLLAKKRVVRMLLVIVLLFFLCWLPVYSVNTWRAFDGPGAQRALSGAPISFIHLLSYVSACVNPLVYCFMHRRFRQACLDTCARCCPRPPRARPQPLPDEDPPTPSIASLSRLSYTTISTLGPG
As to the kind of experiment: Binding affinity towards gastrin/Cholecystokinin type B receptor from rat brain using [125I]CCK-8 as the radioligand.

Assay [2] concerns the target T2, Cholecystokinin receptor type A (Rattus norvegicus, UniProt P30551).
T2 sequence (P30551 whole entry): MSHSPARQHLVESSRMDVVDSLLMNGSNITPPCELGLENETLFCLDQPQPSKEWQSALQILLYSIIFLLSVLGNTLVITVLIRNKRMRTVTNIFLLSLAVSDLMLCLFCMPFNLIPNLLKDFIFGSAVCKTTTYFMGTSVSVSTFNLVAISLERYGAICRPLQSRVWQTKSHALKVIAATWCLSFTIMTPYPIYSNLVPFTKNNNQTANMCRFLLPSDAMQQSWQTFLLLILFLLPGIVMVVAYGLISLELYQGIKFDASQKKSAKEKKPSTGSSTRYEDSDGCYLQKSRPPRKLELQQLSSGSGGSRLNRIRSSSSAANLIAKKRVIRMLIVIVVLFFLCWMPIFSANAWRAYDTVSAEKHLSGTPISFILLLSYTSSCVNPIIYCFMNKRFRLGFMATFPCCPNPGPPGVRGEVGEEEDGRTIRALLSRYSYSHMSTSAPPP
As to the kind of experiment: Binding affinity towards Cholecystokinin type A receptor from rat pancreas using [I125]-L-364,718 as the radioligand.

Assay [3] has as its system Rattus norvegicus. Kind of assay: Compound was evaluated for in vivo inhibition of pentagastrin induced gastric acid secretion in rats after iv administration at dose of 0.1 umol/kg. The format is functional. As to conditions: Stomach.
Assay [4] has as its system Rattus norvegicus. Kind of assay: Compound was evaluated for in vivo inhibition of pentagastrin induced gastric acid secretion in rats by 50% after iv administration. In kind it is functional. As to conditions: Stomach.

Turning to `Cc1cccc(NC(=O)NC2N=C(c3cnc[nH]3)c3ccccc3N(CC(=O)C(C)(C)C)C2=O)c1` (centres undefined), the IC50 – broadly, the point on the concentration scale where inhibition reaches its midpoint – in assay [1] came out at 26.1 nM; in assay [2] it was 232 nM. For the same compound, the inhibition in vivo (commonly the change of the read-out against control, counted positive when it falls) at 0.1 µmol/kg in the assay with Rattus norvegicus [3] amounted to 25%.

`Cc1cccc(NC(=O)NC2N=C(c3ccccn3)c3ccccc3N(CC(=O)C(C)(C)C)C2=O)c1` (centres undefined): the 50% inhibitory concentration (IC50) in assay [1] was found to be 0.44 nM; in assay [2] it was 470 nM. The ED50 (in general, the midpoint of the dose-response relation) in the assay with Rattus norvegicus [4] amounted to 0.016 µmol/kg.

Consider `Cc1cccc(NC(=O)NC2N=C(c3ccccc3)c3ccccc3N(CC(=O)C(C)(C)C)C2=O)c1` (centres undefined), for which, in assay [2], the 50% inhibitory concentration (IC50) was 111 nM.

On to `Cc1cccc(NC(=O)NC2N=C(c3nccn3C)c3ccccc3N(CC(=O)C(C)(C)C)C2=O)c1` (centres undefined), for which the IC50 in assay [1] is 4.52 nM; in assay [2] it was 844 nM. The same compound registered an inhibition in vivo at 0.1 µmol/kg in the assay on Rattus norvegicus [3] of 49%.

As for `Cc1cccc(NCNC2N=C(c3ccn[nH]3)c3ccccc3N(CC(=O)C(C)(C)C)C2=O)c1` (centres undefined), the IC50 was > 100 nM in assay [1] and 105 nM in assay [2]. The compound further displayed an inhibition in vivo at 0.1 µmol/kg with Rattus norvegicus [3] of 18%.

Consider `Cc1cccc(NCNC2N=C(c3nccs3)c3ccccc3N(CC(=O)C(C)(C)C)C2=O)c1` (centres undefined), for which the figures for the IC50 in assay [1] and in assay [2] were 0.8 nM and 433 nM, respectively. This compound came in with an inhibition in vivo at 0.1 µmol/kg in the assay on Rattus norvegicus [3] of 58%.

In the case of `Cc1cccc(NC(=O)NC2N=C(c3cccnc3)c3ccccc3N(CC(=O)C3CCCC3)C2=O)c1` (centres undefined), the IC50 in assay [1] was determined as 1.6 nM; in assay [2], 80 nM. The compound also returned an inhibition in vivo at 0.1 µmol/kg with Rattus norvegicus [3] of 34%.

Consider `Cc1cccc(NC(=O)NC2N=C(c3ccccn3)c3ccccc3N(CC(=O)C3CCCC3)C2=O)c1` (centres undefined), for which the half-maximal inhibitory concentration (IC50) in assay [1] worked out at 0.12 nM; in assay [2], 2600 nM. This compound yielded an ED50 in the assay with Rattus norvegicus [4] of 0.0189 µmol/kg.

With `Cc1cccc(NC(=O)NC2N=C(c3ccncc3)c3ccccc3N(CC(=O)c3ccccc3C)C2=O)c1` (centres undefined), the IC50 turned out to be 18 nM in assay [1] and 670 nM in assay [2]. The same compound had an inhibition in vivo at 0.1 µmol/kg in the assay with Rattus norvegicus [3] of 37%.

For the compound `Cc1cccc(NC(=O)NC2N=C(c3ccncc3)c3ccccc3N(CC(=O)C3CCCC3)C2=O)c1` (centres undefined), the half-maximal inhibitory concentration (IC50) is 48 nM in assay [1] and > 10000 nM in assay [2]. Also, in the assay with Rattus norvegicus [3], the inhibition in vivo at 0.1 µmol/kg stood at 15%.

Consider `Cc1cccc(NC(=O)NC2N=C(c3ncc[nH]3)c3ccccc3N(CC(=O)C(C)(C)C)C2=O)c1` (centres undefined), for which the half-maximal inhibitory concentration (IC50) worked out at 8 nM in assay [1] and 2610 nM in assay [2]. Also, in the assay on Rattus norvegicus [3], the inhibition in vivo at 0.1 µmol/kg was found to be 14%.

With `Cc1cccc(NC(=O)NC2N=C(c3cnccn3)c3ccccc3N(CC(=O)C(C)(C)C)C2=O)c1` (centres undefined), the IC50 in assay [1] was found to be 0.88 nM; in assay [2] it was 1360 nM. In addition, the inhibition in vivo at 0.1 µmol/kg in the assay with Rattus norvegicus [3] was determined as 55%.

With `Cc1cccc(NC(=O)NC2N=C(c3ccccn3)c3ccccc3N(CC(=O)c3ccccc3C)C2=O)c1` (centres undefined), the IC50 in assay [1] turned out to be 0.13 nM; in assay [2], 980 nM. Moreover, the 50% effect level with Rattus norvegicus [4] (ED50) was put at a dose of 0.0167 µmol/kg.

Turning to `Cc1cccc(NC(=O)NC2N=C(c3ccccc3)c3ccccc3N(CC(=O)c3ccccc3C)C2=O)c1` (centres undefined), the half-maximal inhibitory concentration (IC50) in assay [1] was 0.11 nM; in assay [2], 146 nM.
